Results from PubChem BioAssay AID1259407 (Chemical Carcinogenesis Research Information System (CCRIS), 2018).
Calls of active or inactive are those of the source. The rule behind the calls is not given here.

System: CCRIS mutagenicity, Ames/micronucleus/aberration tests
Assay: CCRIS mutagenicity studies
[1] = Test System: AMES SALMONELLA TYPHIMURIUM, Strain/Indicator: TA98, Metabolic Activation: NONE, Method: PREINCUBATION
[2] = Test System: AMES SALMONELLA TYPHIMURIUM, Strain/Indicator: TA100, Metabolic Activation: NONE, Method: PREINCUBATION
[3] = Test System: AMES SALMONELLA TYPHIMURIUM, Strain/Indicator: TA1535, Metabolic Activation: NONE, Method: PREINCUBATION
[4] = Test System: AMES SALMONELLA TYPHIMURIUM, Strain/Indicator: TA1537, Metabolic Activation: NONE, Method: PREINCUBATION
[5] = Test System: AMES SALMONELLA TYPHIMURIUM, Strain/Indicator: TA98, Metabolic Activation: NONE, Method: STANDARD PLATE
[6] = Test System: AMES SALMONELLA TYPHIMURIUM, Strain/Indicator: TA98, Metabolic Activation: RAT, LIVER, S-9, AROCLOR 1254, Method: STANDARD PLATE
[7] = Test System: AMES SALMONELLA TYPHIMURIUM, Strain/Indicator: TA100, Metabolic Activation: NONE, Method: STANDARD PLATE
[8] = Test System: AMES SALMONELLA TYPHIMURIUM, Strain/Indicator: TA100, Metabolic Activation: RAT, LIVER, S-9, AROCLOR 1254, Method: STANDARD PLATE
[9] = Test System: AMES SALMONELLA TYPHIMURIUM, Strain/Indicator: TA97A, Metabolic Activation: NONE, Method: STANDARD PLATE
[10] = Test System: AMES SALMONELLA TYPHIMURIUM, Strain/Indicator: TA102, Metabolic Activation: NONE, Method: STANDARD PLATE

Measured: mutagenic call

Oc1c(Br)c(Br)c(Br)c(Br)c1Br
inactive: Test System: AMES SALMONELLA TYPHIMURIUM, Strain/Indicator: TA98, Metabolic Activation: HAMSTER, LIVER, S-9, AROCLOR 1254 (10%), Method: PREINCUBATION inactive; negative | [1] inactive; negative | Test System: AMES SALMONELLA TYPHIMURIUM, Strain/Indicator: TA98, Metabolic Activation: RAT, LIVER, S-9, AROCLOR 1254 (10%), Method: PREINCUBATION inactive; negative | Test System: AMES SALMONELLA TYPHIMURIUM, Strain/Indicator: TA100, Metabolic Activation: HAMSTER, LIVER, S-9, AROCLOR 1254 (10%), Method: PREINCUBATION inactive; negative | [2] inactive; negative | Test System: AMES SALMONELLA TYPHIMURIUM, Strain/Indicator: TA100, Metabolic Activation: RAT, LIVER, S-9, AROCLOR 1254 (10%), Method: PREINCUBATION inactive; negative | Test System: AMES SALMONELLA TYPHIMURIUM, Strain/Indicator: TA1535, Metabolic Activation: HAMSTER, LIVER, S-9, AROCLOR 1254 (10%), Method: PREINCUBATION inactive; negative | [3] inactive; negative | Test System: AMES SALMONELLA TYPHIMURIUM, Strain/Indicator: TA1535, Metabolic Activation: RAT, LIVER, S-9, AROCLOR 1254 (10%), Method: PREINCUBATION inactive; negative | Test System: AMES SALMONELLA TYPHIMURIUM, Strain/Indicator: TA1537, Metabolic Activation: HAMSTER, LIVER, S-9, AROCLOR 1254 (10%), Method: PREINCUBATION inactive; negative | [4] inactive; negative | Test System: AMES SALMONELLA TYPHIMURIUM, Strain/Indicator: TA1537, Metabolic Activation: RAT, LIVER, S-9, AROCLOR 1254 (10%), Method: PREINCUBATION inactive; negative

CC1(O)CC2CCC1(C)C2(C)C (stereo unspecified)
inactive: [5] inactive; negative | [6] inactive; negative | [7] inactive; negative | [8] inactive; negative

Cc1ccc2cc3c(ccc4ccccc43)c3c2c1CC3O (stereo unspecified)
active: Test System: CHINESE HAMSTER V-79, Strain/Indicator: V-79/8-AZAGUANINE, Metabolic Activation: RAT, LIVER, S-9, AROCLOR 1254, Method: STANDARD PLATE active; positive

Cc1ccc(C)c(C)c1C
inactive: [9] inactive; negative | Test System: AMES SALMONELLA TYPHIMURIUM, Strain/Indicator: TA97A, Metabolic Activation: RAT LIVER S-9, AROCLOR 1254, Method: STANDARD PLATE inactive; negative | [5] inactive; negative | Test System: AMES SALMONELLA TYPHIMURIUM, Strain/Indicator: TA98, Metabolic Activation: RAT LIVER S-9, AROCLOR 1254, Method: STANDARD PLATE inactive; negative | [7] inactive; negative | Test System: AMES SALMONELLA TYPHIMURIUM, Strain/Indicator: TA100, Metabolic Activation: RAT LIVER S-9, AROCLOR 1254, Method: STANDARD PLATE inactive; negative | [10] inactive; negative | Test System: AMES SALMONELLA TYPHIMURIUM, Strain/Indicator: TA102, Metabolic Activation: RAT LIVER S-9, AROCLOR 1254, Method: STANDARD PLATE inactive; negative

Cc1ccc(N)cc1Cl
inactive: [5] inactive; negative | [6] inactive; negative | [7] inactive; negative | [8] inactive; negative | Test System: AMES SALMONELLA TYPHIMURIUM, Strain/Indicator: TA1535, Metabolic Activation: NONE, Method: STANDARD PLATE inactive; negative | Test System: AMES SALMONELLA TYPHIMURIUM, Strain/Indicator: TA1535, Metabolic Activation: RAT, LIVER, S-9, AROCLOR 1254, Method: STANDARD PLATE inactive; negative | Test System: AMES SALMONELLA TYPHIMURIUM, Strain/Indicator: TA1537, Metabolic Activation: NONE, Method: STANDARD PLATE inactive; negative | Test System: AMES SALMONELLA TYPHIMURIUM, Strain/Indicator: TA1537, Metabolic Activation: RAT, LIVER, S-9, AROCLOR 1254, Method: STANDARD PLATE inactive; negative | Test System: AMES SALMONELLA TYPHIMURIUM, Strain/Indicator: TA1538, Metabolic Activation: NONE, Method: STANDARD PLATE inactive; negative | Test System: AMES SALMONELLA TYPHIMURIUM, Strain/Indicator: TA1538, Metabolic Activation: RAT, LIVER, S-9, AROCLOR 1254, Method: STANDARD PLATE inactive; negative | Test System: CHINESE HAMSTER OVARY, Strain/Indicator: CHO-K1-BH4 (HPRT)/6-THIOGUANINE, Metabolic Activation: NONE inactive; negative | Test System: CHINESE HAMSTER OVARY, Strain/Indicator: CHO-K1-BH4 (HPRT)/6-THIOGUANINE, Metabolic Activation: RAT, LIVER, S-9, AROCLOR 1254 inactive; negative

CCOCC(=O)O
inactive: [9] inactive; negative | Test System: AMES SALMONELLA TYPHIMURIUM, Strain/Indicator: TA97A, Metabolic Activation: RAT, LIVER, S-9, AROCLOR 1254, Method: STANDARD PLATE inactive; negative | [5] inactive; negative | [6] inactive; negative | [7] inactive; negative | [8] inactive; negative | [10] inactive; negative | Test System: AMES SALMONELLA TYPHIMURIUM, Strain/Indicator: TA102, Metabolic Activation: RAT, LIVER, S-9, AROCLOR 1254, Method: STANDARD PLATE inactive; negative

O=C(C(Cl)Cl)C(Cl)Cl
active: [5] active; positive | [7] active; positive

CO[C@H](C(=O)[C@@H](O)[C@@H](C)O)[C@@H]1Cc2cc3cc(O[C@H]4C[C@@H](O[C@H]5C[C@@H](O)[C@H](O)[C@@H](C)O5)[C@H](O)[C@@H](C)O4)c(C)c(O)c3c(O)c2C(=O)[C@H]1O[C@H]1C[C@@H](O[C@H]2C[C@@H](O[C@H]3C[C@](C)(O)[C@H](O)[C@@H](C)O3)[C@@H](O)[C@@H](C)O2)[C@H](O)[C@@H](C)O1
active: Test System: CHINESE HAMSTER OVARY, Strain/Indicator: CHO (HGPRT)/6-THIOGUANINE, Metabolic Activation: NONE, Method: PREINCUBATION active; positive

CC1=CCC(=O)O1
inactive: [5] inactive; negative | [6] inactive; negative | [7] inactive; negative | [8] inactive; negative

CN(C)C(=O)Nc1ccc(Cl)cc1
active: End Point: IN VITRO CHROMOSOMAL ABERRATIONS, Test System: CHINESE HAMSTER OVARY CELLS, Metabolic Activation: RAT, LIVER, S-9, AROCLOR 1254 active; positive; precipitation occurred at all doses
inactive: End Point: IN VITRO CHROMOSOMAL ABERRATIONS, Test System: CHINESE HAMSTER OVARY CELLS, Metabolic Activation: NONE inactive; negative; precipitation occurred at all doses | Test System: AMES SALMONELLA TYPHIMURIUM, Strain/Indicator: TA98, Metabolic Activation: HAMSTER, LIVER, S-9, AROCLOR 1254, Method: PREINCUBATION inactive; negative | [1] inactive; negative | Test System: AMES SALMONELLA TYPHIMURIUM, Strain/Indicator: TA98, Metabolic Activation: RAT, LIVER, S-9, AROCLOR 1254, Method: PREINCUBATION inactive; negative | Test System: AMES SALMONELLA TYPHIMURIUM, Strain/Indicator: TA100, Metabolic Activation: HAMSTER, LIVER, S-9, AROCLOR 1254, Method: PREINCUBATION inactive; negative | [2] inactive; negative | Test System: AMES SALMONELLA TYPHIMURIUM, Strain/Indicator: TA100, Metabolic Activation: RAT, LIVER, S-9, AROCLOR 1254, Method: PREINCUBATION inactive; negative | Test System: AMES SALMONELLA TYPHIMURIUM, Strain/Indicator: TA1535, Metabolic Activation: HAMSTER, LIVER, S-9, AROCLOR 1254, Method: PREINCUBATION inactive; negative | [3] inactive; negative | Test System: AMES SALMONELLA TYPHIMURIUM, Strain/Indicator: TA1535, Metabolic Activation: RAT, LIVER, S-9, AROCLOR 1254, Method: PREINCUBATION inactive; negative | Test System: AMES SALMONELLA TYPHIMURIUM, Strain/Indicator: TA1537, Metabolic Activation: HAMSTER, LIVER, S-9, AROCLOR 1254, Method: PREINCUBATION inactive; negative | [4] inactive; negative | Test System: AMES SALMONELLA TYPHIMURIUM, Strain/Indicator: TA1537, Metabolic Activation: RAT, LIVER, S-9, AROCLOR 1254, Method: PREINCUBATION inactive; negative
